“And” between values parts separate entries of the source, which are not always exact repeats. Equal values may be shown once.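 Compound exposure: 48 hours, 5 concentrations, 96-well plates. The concentration for 50% growth inhibition is given as GI50. The concentration for full growth arrest is given as TGI.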
Columns and labels:
Test in all cases: NCI-60 cell line screen, 48 h
[1] = tested on: UACC-62 melanoma
[2] = tested on: NCI-H226 lung
[3] = tested on: CAKI-1 renal
[4] = tested on: EKVX NSCLC
[5] = tested on: IGROV1 ovarian
[6] = tested on: OVCAR-5 ovarian
[7] = tested on: LOX IMVI melanoma
[8] = tested on: SNB-19 CNS
[9] = tested on: RXF 393 renal
[10] = tested on: SK-OV-3 ovarian

CN(C)CCC(N)(P(=O)([O-])[O-])P(=O)([O-])[O-].N.N.[Pt+2]
GI50 [1]: > 100 µM | TGI [1]: > 100 µM | GI50 [2]: > 100 µM | TGI [2]: > 100 µM | GI50 [3]: > 100 µM | TGI [3]: > 100 µM | GI50 [4]: > 100 µM | TGI [4]: > 100 µM | GI50 [5]: > 100 µM | TGI [5]: > 100 µM | GI50 [6]: > 100000 nM | TGI [6]: > 100 µM | GI50 [7]: > 100 µM | TGI [7]: > 100 µM | GI50 [8]: > 100 µM | TGI [8]: > 100 µM | GI50 [9]: > 100 µM | TGI [9]: > 100 µM

C=CC1(C)CCC2C(=CCC3C2(C)CC(O)C(O)C3(C)COC2OC(CO)C(O)C(O)C2O)C1 (stereo not given)
TGI [1]: > 100 µM | TGI [2]: > 100 µM | TGI [3]: > 100 µM | TGI [4]: > 100 µM | TGI [5]: > 100 µM | TGI [6]: > 100 µM | TGI [7]: > 100 µM | TGI [8]: > 100 µM | TGI [10]: > 100 µM

CC(C)=CCc1cc2c(cc1O)C1=C(C(=O)C3=C(NCCS3(=O)=O)C1=O)C(C=C(C)C)O2 (stereo not given)
GI50 [1]: 3.39 µM | TGI [1]: 8.79 µM | GI50 [2]: 14.4 µM | TGI [2]: > 16.7 µM | GI50 [4]: 6.24 µM | TGI [4]: > 16.7 µM | GI50 [5]: 3.69 µM | TGI [5]: 15 µM | GI50 [6]: > 16700 nM | TGI [6]: > 16.7 µM | GI50 [7]: 4.48 µM | TGI [7]: > 16.7 µM | GI50 [8]: 3.81 µM | TGI [8]: 11.9 µM | GI50 [9]: 7.66 µM | TGI [9]: > 16.7 µM | GI50 [10]: > 16.7 µM | TGI [10]: > 16.7 µM

C/C(CN1C(=O)c2ccccc2C1=O)=N\NS(=O)(=O)c1ccc2ccccc2c1
TGI [1]: > 100 µM | TGI [2]: > 100 µM | TGI [3]: > 100 µM | TGI [4]: > 100 µM | TGI [5]: > 100 µM | TGI [6]: > 100 µM | TGI [7]: > 100 µM | TGI [8]: > 100 µM | TGI [10]: > 100 µM

O=C(CCc1nnc2s/c(=C\c3ccc([N+](=O)[O-])cc3)c(=O)n12)Nc1ccc(Cl)c(Cl)c1
TGI [1]: 78.8 µM | TGI [2]: 37 µM | TGI [3]: > 100 µM | TGI [5]: 50 µM | TGI [6]: > 100 µM | TGI [7]: 31.9 µM | TGI [8]: > 100 µM | TGI [9]: 34.6 µM | TGI [10]: > 100 µM

COc1ccc(-c2csc3c2-n2cccc2C3=O)cc1
GI50 [1]: 0.232 µM | TGI [1]: > 100 µM | GI50 [2]: 0.0174 µM | GI50 [3]: 0.0528 µM | TGI [3]: > 100 µM | GI50 [4]: 0.597 µM | TGI [4]: > 81.4 µM | GI50 [5]: 0.0229 µM | TGI [5]: > 88.5 µM | GI50 [6]: 94.6 nM | TGI [6]: > 100 µM | GI50 [7]: 0.0349 µM | TGI [7]: > 100 µM | GI50 [8]: 0.0394 µM | TGI [8]: > 100 µM | TGI [10]: 5.98 µM and 25.3 µM

C=CCC1(O)c2ccccc2C(=O)c2c(OCC(=O)OCC)ccc(OCC(=O)OCC)c21 (stereo not given)
GI50 [1]: 64.7 µM | TGI [1]: > 100 µM | GI50 [2]: > 100 µM | TGI [2]: > 100 µM | GI50 [3]: > 100 µM | TGI [3]: > 100 µM | GI50 [4]: > 100 µM | TGI [4]: > 100 µM | GI50 [5]: > 100 µM | TGI [5]: > 100 µM | GI50 [6]: > 100000 nM | TGI [6]: > 100 µM | GI50 [7]: > 100 µM | TGI [7]: > 100 µM | GI50 [8]: > 100 µM | TGI [8]: > 100 µM

O=C1C2C3CC4C5C3C1C5C1(SCCS1)C42 (stereo not given)
TGI [1]: > 100 µM | TGI [2]: > 100 µM | TGI [3]: > 100 µM | TGI [5]: > 100 µM | TGI [8]: > 100 µM | TGI [9]: > 100 µM | TGI [10]: > 100 µM

CCN(CC)CC(=O)NC1c2ccccc2Oc2ccccc21
TGI [1]: > 100 µM | TGI [2]: > 100 µM | TGI [4]: > 100 µM | TGI [5]: > 100 µM | TGI [6]: > 100 µM | TGI [7]: > 100 µM | TGI [8]: > 100 µM | TGI [9]: > 100 µM | TGI [10]: > 100 µM

CC(C)=CCC/C(C)=C/CC/C(C)=C/CSC[C@H](NC(=O)CCCCCN1CCN(C)CC1)C(=O)NC1CCCCCC1
GI50 [1]: 1.78 µM | TGI [1]: 3.44 µM | GI50 [2]: 11.6 µM | TGI [2]: 38.4 µM | GI50 [3]: 2.84 µM | TGI [3]: 9.19 µM | GI50 [5]: 2.36 µM | TGI [5]: 5.31 µM | GI50 [6]: 1840 nM | TGI [6]: 3.6 µM | GI50 [7]: 1.76 µM | TGI [7]: 3.29 µM | GI50 [8]: 2.02 µM | TGI [8]: 4.43 µM | GI50 [10]: 5.16 µM | TGI [10]: 17.1 µM

Cn1cc(C2=C(c3ccsc3)C(=O)NC2=O)c2ccccc21
GI50 [1]: > 25 µM | TGI [1]: > 25 µM | GI50 [2]: > 22.6 µM | TGI [2]: > 25 µM | GI50 [3]: > 25 µM | TGI [3]: > 25 µM | GI50 [5]: > 25 µM | TGI [5]: > 25 µM | GI50 [6]: > 25000 nM | TGI [6]: > 25 µM | GI50 [7]: > 25 µM | TGI [7]: > 25 µM | GI50 [8]: > 25 µM | TGI [8]: > 25 µM | GI50 [9]: 24.4 µM | TGI [9]: > 25 µM | GI50 [10]: > 25 µM | TGI [10]: > 25 µM

O=C(CCc1n[nH]c(=S)o1)Nc1cc(Cl)ccc1Cl
TGI [1]: > 100 µM | TGI [2]: > 100 µM | TGI [3]: > 100 µM | TGI [4]: > 100 µM | TGI [5]: > 100 µM | TGI [6]: > 100 µM | TGI [8]: > 100 µM | TGI [10]: > 100 µM

CN1C(=O)C(c2c[nH]c3ccccc23)=C(c2c[nH]c3ccccc23)C1=O
GI50 [1]: 3.07 µM | TGI [1]: 17.3 µM | GI50 [2]: 5.96 µM | TGI [2]: > 19.4 µM | GI50 [3]: 3.92 µM | TGI [3]: 12.1 µM | GI50 [5]: 5.47 µM | TGI [5]: > 22.8 µM | GI50 [6]: 9880 nM | TGI [6]: > 25 µM | GI50 [7]: 3.73 µM | TGI [7]: 9.3 µM | GI50 [8]: 9.77 µM | TGI [8]: > 25 µM | GI50 [9]: 4.41 µM | TGI [9]: 12.8 µM | GI50 [10]: 12 µM | TGI [10]: > 25 µM

CC1=C(CCCOC(=O)[C@H](N)CC(C)C)C2=C(C)C3(CC3)[C@@](C)(O)C(=O)C2=C1
GI50 [1]: 1.75 µM | TGI [1]: 3.75 µM | GI50 [2]: 1.89 µM | TGI [2]: 6.95 µM | GI50 [4]: 2.77 µM | TGI [4]: 8.66 µM | GI50 [5]: 0.471 µM | TGI [5]: 6.19 µM | GI50 [6]: 1940 nM | TGI [6]: 11.8 µM | GI50 [7]: 2.42 µM | TGI [7]: 8.9 µM | GI50 [8]: 2.88 µM | TGI [8]: > 100 µM | GI50 [9]: 0.492 µM | TGI [9]: 1.29 µM | GI50 [10]: 0.752 µM | TGI [10]: 3.03 µM

O=C1C=C(Nc2ccccc2)c2ccccc2C1=O
GI50 [1]: 1.65 µM | TGI [1]: 3.12 µM | GI50 [2]: 1.93 µM | TGI [2]: 4.21 µM | GI50 [3]: 3.11 µM | TGI [3]: 13.7 µM | GI50 [5]: 2.78 µM | TGI [5]: 7.31 µM | GI50 [6]: 1850 nM | TGI [6]: 3.33 µM | GI50 [7]: 1.51 µM | TGI [7]: 3.17 µM | GI50 [8]: 2.2 µM | TGI [8]: 6.73 µM | GI50 [9]: 2.53 µM | TGI [9]: 8.77 µM | GI50 [10]: 2.95 µM | TGI [10]: 8.99 µM

Cn1ncnc1[C@@H]1c2n[nH]c(=O)c3cc(F)cc(c23)N[C@H]1c1ccc(F)cc1
GI50 [1]: > 100 µM | TGI [1]: > 100 µM | GI50 [2]: > 100 µM | TGI [2]: > 100 µM | GI50 [3]: 91.5 µM | TGI [3]: > 100 µM | GI50 [5]: > 100 µM | TGI [5]: > 100 µM | GI50 [6]: > 100000 nM | TGI [6]: > 100 µM | GI50 [7]: > 100 µM | TGI [7]: > 100 µM | GI50 [8]: > 100 µM | TGI [8]: > 100 µM | GI50 [9]: > 100 µM | TGI [9]: > 100 µM | GI50 [10]: > 100 µM | TGI [10]: > 100 µM

— PubChem BioAssay (NCI)
